Measurements: patent US12714678B2, “Peptides and methods of treating sepsis, atherosclerosis, thrombosis, stroke, heart attack and inflammation” (THE BOARD OF TRUSTEES OF THE UNIVERSITY OF ILLINOIS, priority 2019, dated 2026)
Where a SMILES comes first, the peptide text is derived from it. Where no end group is shown, it is not given here. The star is where a group is joined. Myristoyl = CCCCCCCCCCCCCC(=O)*

Experiments:
C57BL/6 mice [1] = assay: Tail bleeding time; conditions: M3mP6 HLPN 10 μmol/kg; aspirin 4.3 mg/kg; clopidogrel 4 mg/kg; ticagrelor 3 mg/kg; cangrelor 30 μg/kg; MB2mP6
Description: M3mP6 was administered via retro-orbital injection 15 minutes prior to procedure.
Tail bleeding time was performed as previously described (21, 39). Eight- to 10-week-old C57BL/6 mice were anesthetized with isoflurane. After cutting 0.5-cm-long segment of the distal tip of the tail, their tails were immersed in 0.15 M NaCl immediately at 37° C. Tail bleeding time was defined as the time between cutting tail and stable cessation of bleeding (no rebleeding within 60s). […] If bleeding persisted at 15 minute time point, bleeding was stopped by application of pressure. Data were analyzed using Mann-Whitney test to compare medians between groups.
Tail bleeding time was performed as previously described (16, 29). Eight- to 10-week-old C57BL/6 mice weighing 20-25 g were anesthetized with isoflurane. After cutting a 0.5-cm-long segment off the distal tip of the tail, their tails were immersed in 0.15 M NaCl immediately at 37° C. Tail bleeding time was defined as the time between cutting the tail and stable cessation of bleeding (no re-bleeding within 60s). […] If bleeding persisted at 15 minutes, bleeding was stopped by application of pressure. Data were analyzed using the Mann-Whitney test to compare medians between groups.

C57/BL6 mice = assay: Reverse passive Arthus (rpA) reaction; assay type: in vivo, mouse; conditions: 5 μmol/kg, vs scrambled peptide
Description: C57/BL6 mice were anesthetized by i.p. injection of a mixture of ketamine and xylazine (100 mg/kg and 16 mg/kg mouse weight), and the medial surface of the mouse back was shaved. Shaved mice received intradermal injections of rabbit anti-bovine serum albumin (BSA) antibody (6 μg/μL, MP Biomedicals, OH) in 25 μL of 0.9% NaCl, followed by i.v. injection of BSA (75 μg/g mouse weight) as well as the peptide inhibitors (5 μmol/kg mouse weight) in 100 μL sterile 0.9% NaCl. In addition, control sites received 25 μL of PBS in parallel. Four hours after injection, mice were euthanized and inflamed or control skin samples at each injection site were collected. The hemoglobin (Hb) contents in the skin samples were quantified by hemoglobin colorimetric assay kit (Cayman Chemical, Ann Arbor, MI).

C57BL/6 mice [2] = assay: Cecal ligation and puncture (CLP) sepsis model; assay type: in vivo, mouse; conditions: bolus 2.5 μmol/kg then 1.25 μmol/kg/hour i.v.
Description: CLP sepsis was induced as described previously (32, 33). In brief, mice (14- to 16-week-old with equal number of each gender) were anesthetized by intraperitoneal administration of ketamine (100 mg/kg body weight) and xylazine (8 mg/kg). After a midline laparotomy, the cecum was ligated at about 1 cm from the end and then subjected to a double “through and through” perforation with an 18-gauge needle. Sham-operated mice underwent the same procedure except for ligation and puncture of the cecum. After the procedure, an analgesic (buprenorphine, 0.1 mg/kg, s.c.) was given immediately and every 12 h thereafter for 3 d. At these time points, fluid resuscitation (prewarmed 0.9% NaCl, 0.05 ml/g body weight) was given through subcutaneous injection to prevent fluid loss and help the recovery of body temperature. […] The survival of mice was observed every 6 h for 8 days and analyzed by the Log Rank test (using Prism GraphPad software (ver. 5.0), San Diego, CA, USA). […]
Twenty-four hours after CLP, mouse blood was collected and added to an EDTA-rinsed microcentrifuge tube or citrate buffer. […] The kidney function markers BUN, creatinine and cystatin C and mouse liver function marker ALT were detected using corresponding kits according to the manufacturers' instructions. […]

## CCCCCCCCCCCCCC(=O)N[C@@H](Cc1ccccc1)C(=O)N[C@@H](CCC(=O)O)C(=O)N[C@@H](CCCCN)C(=O)N[C@@H](CCC(=O)O)C(=O)N[C@@H](CCCCN)C(=O)N[C@@H](CC(C)C)C(=O)O [MB2mP6, Myr-FEKEKL] (Myristoyl-FEKEKL-OH; C-terminus assumed)
C57BL/6 mice [1]
  tail bleeding time vs normal control: neither affected
C57/BL6 mice
  inflammation-induced hemorrhage: neither affected

## Myr-EFKKLE (Myristoyl-EFKKLE) [control peptide, scrambled control for MB2mP6 in micellar nanoparticle formulation (CLP study)]
C57BL/6 mice [2]
  survival rate at 192 h (8 days), infusion immediately after CLP: 26%
